Consider four compounds from PMC9052873 (Journal of medicinal chemistry, 2020).

Read-outs that look alike come from different tables or passages of the source.

Assay [1] has as its target T1, bovine PNMT (Bos taurus, UniProt P10938).
T1 sequence (P10938 1-283): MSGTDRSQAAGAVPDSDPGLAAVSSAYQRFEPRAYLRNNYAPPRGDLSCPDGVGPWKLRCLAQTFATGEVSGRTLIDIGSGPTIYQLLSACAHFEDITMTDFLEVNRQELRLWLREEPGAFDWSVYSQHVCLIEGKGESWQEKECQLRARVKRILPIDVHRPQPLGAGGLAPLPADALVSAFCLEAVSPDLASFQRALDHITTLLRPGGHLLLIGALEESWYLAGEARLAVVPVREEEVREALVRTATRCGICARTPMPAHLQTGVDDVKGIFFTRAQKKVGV
The assay is described as follows: PNMT inhibition, bovine enzyme. Format: biochemical.

Assay [2] has as its target T2, human PNMT (hPNMT) (Homo sapiens, UniProt P11086).
T2 sequence (P11086 1-282): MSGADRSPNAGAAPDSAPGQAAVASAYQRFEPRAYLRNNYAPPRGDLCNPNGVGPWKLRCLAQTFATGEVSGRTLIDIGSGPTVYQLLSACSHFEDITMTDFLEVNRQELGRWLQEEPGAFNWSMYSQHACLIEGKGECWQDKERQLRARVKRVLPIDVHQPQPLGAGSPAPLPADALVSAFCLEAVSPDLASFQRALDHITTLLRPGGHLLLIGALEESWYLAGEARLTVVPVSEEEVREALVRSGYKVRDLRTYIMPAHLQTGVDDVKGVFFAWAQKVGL
The assay is described as follows: radiochemical assay for hPNMT inhibitory potency.

Assay [3] addresses T1, bovine PNMT. The note with it: read-out: PNMT Kis^PEA; bovine enzyme; ref [16]; cited from earlier work.
Assay [4] addresses PNMT. The note with it: read-out: Ki^PEA; ref [85]; cited from earlier work.

Regarding `NCC1Cc2ccccc2CN1` (centres unmarked) [Compound 14], in assay [1], the Ki stood at 1.4 µM. For the same compound, the “greater potency as an inhibitor of hPNMT than 13” value in assay [2] (14 (aminomethyl) versus 13 (aminocarbonyl)) was “over 20 fold”.
`NC(=O)C1Cc2ccccc2CN1` (centres unmarked) [Compound 13]: in assay [3], the Ki was 31 µM.
On to `c1ccc2c(c1)CCNC2` [Compound 10, 1,2,3,4-tetrahydroisoquinoline], for which, in assay [4], the Ki is 10 µM.
Take tris(hydroxymethyl)amino methane: the “inhibition in PNMT assays” value in assay [2] (buffer component, prompted a switch to phosphate buffer) was “inhibition being observed”.
